Where two headings read alike, the source gives them in different places. Ends that are not written are not given here.
Columns and labels:
Caco-2/TC7 cells [1] = experiment: Caco-2/TC7 cell viability, Neutral Red absorption assay; type: cell-based, Human; details: for viability of Caco-2/TC7 cells (Neutral Red) vs DMEM negative control: 2.5 μg/ml, incubation 24-72 hours; for negative effect of IFN-γ on Caco-2/TC7 viability under simultaneous plantaricin A treatment: IFN-γ 1000 U/ml + plantaricin A 2.5 μg/ml
Experimental: Human Caco-2/TC7 cells (TC7 clone) have been cultured in Dulbecco medium (DMEM), added with calf serum (10%), not essential amino acids (1%), gentamycin/streptomycin (50 μg/ml), glutamine (2 mM) and 4-2-hydroxyethyl-1-piperazinil-etansulfonic acid (1%) (Di Cagno et al., 2010. Quorum sensing in sourdough Lactobacillus plantarum DC400: induction of plantaricin A (PlnA) under co-cultivation with other lactic acid bacteria and effect of PlnA on bacterial and Caco-2 cells. Proteomics in press). Cell viability has been determined with absorption assay using Neutral Red dye (Balls et al., 1987. Approaches to validation alternative methods in toxicology. In: Goldber A. M. (Ed). N.Y. Academic Press pp. 45-58). After 24-72 hour treatment with various preparations, cells have been washed with PBS buffer and incubated for 4 hours at 37° C. with a Neutral Red solution (33 mg/I). Successively, the cells have been again washed with PBS buffer and treated with lysis solution (50% ethanol in 1% acetic acid containing water). Plate reading has been carried out using Novapath plate reader (Biorad, Hercules, Calif.). Di Cagno et al., 2010. Quorum sensing in sourdough Lactobacillus plantarum DC400: induction of plantaricin A (PlnA) under co-cultivation conditions with other lactic acid bacteria and effect of PlnA on bacterial and Caco-2 cells. Proteomics in press).

[2] = test system: human NCTC 2544 keratinocyte cell line; type: cell-based; details: 0.1 μg/ml
Experimental: The used cell line is a human NCTC 2544 keratinocyte cell line (Perry, V. P., Sanford, K. K., Evans, V. J., Hyatt, G. W., Earle, W. R., 1957. Establishment of clones of epithelial cells from human skin. J Natl Cancer Inst. 18 (5): 709-717) cultured in sterile flasks, incubated at 37° C. in humid atmosphere at 5% CO2 in MEM (Minimum Essential Medium) culture medium added with 10% bovine calf serum (FBS), 2 mM L-glutamine, 1% not essential amino acids, in the presence of 1% penicillin and streptomycin. Cells grow in vitro adhering to culture plate surface as a monolayer.
The experiment firstly involves the development of confluent cell monolayer. Successively the cut is carried out and the generated “gap” is observed using microscope as cells gradually moving repair the damage.
NCTC 2544 cells are plated and cultured at 37° C., with 5% CO2 for 24 hours.
After 24 hours complete growth medium is replaced with serum free medium to avoid the serum effect on cell proliferation and cells are incubated for further 24 hours at 37° C., 5% CO2.
After 24 hours the cell monolayer is mechanically damaged by mild 200 μl pipette tip brushing tracking a ˜1 mm wide horizontal line. Then the monolayer is washed and after addition of substances to be tested, the plates are incubated at 37° C., 5% CO2 for 72 hours.
the effect of the substances on cell motility is evaluated using phase contrast reverse microscope, acquiring images at various opportunely selected analysis times.
the damage remedy is determined measuring the clear area between the cut two migration fronts at 0, 4, 8, 12, 24, 48, 72 hours after the cut, using an image processing software (Leica application Suite).
After the cut on the cellular monolayer has been carried out using a 200 μl pipette tip and the cells within the gap between two cut lines completely removed, said cells are treated with synthetic and co-culture deriving Plantaricin at the following concentrations: 0.1-1-10 μg/ml. Also positive and negative controls (connectivine at 100 μg/ml) have been duplicate tested.
Images on the same cut area have been acquired at time 0 and after 4, 8, 12, 24, 48 and 72 hours, to monitor the cell migration in the cut area.

Caco-2/TC7 cells [3] = experiment: TEER of Caco-2/TC7 cell layer; type: cell-based, Human; details: for negative effect of IFN-γ on Caco-2/TC7 TEER with added plantaricin A: IFN-γ 1000 U/ml + plantaricin A 2.5 μg/ml
Experimental: For TEER determination Caco-2/TC7 cells have been inoculated (7.5×10^4 cells/ml) in a 24 well plate and a polyethylene filter (0.4 μm pore). Before the treatment, the cells have been incubated for 21 days at 37° C. Treatments with various preparations have been carried out for 18, 24 and 48 hours. Integrity of the cellular layer therefore has been determined by means of TEER determination.

[4] = test system: Cultured human keratinocytes; experiment: Wound healing assay on cultured human keratinocyte monolayer (Example 2); type: cell-based; details: 1 hour incubation with stimulus (Plantaricin A 2.5 μg/ml), then 24 hours
Experimental: Cultured human keratinocytes have been incubated with Plantaricin A (2.5 μg/ml) or Plantaricin A containing biomass for 1 hour.
At the end of the incubation, the cells have been washed and culture medium restored.
The test consists of carrying out a mechanical interruption in the continuity of the cellular monolayer in order the treatment effect in favouring or not the keratinocyte ability to migrate beyond the damage border and therefore “heal the lesion” to be evaluated.
To this end the keratinocyte monolayer, treated as above described, was incubated over aditional 24 hours after stimulus application and then fixed and stained using ematoxylin/eosin staining. Images have been observed with light microscope using 5× objective.
For each image maximum cell migration limits and distance or gap there between have been detected and calculated, respectively (FIG. 9-10).

Row | Substance | viability of Caco-2/TC7 cells (Neutral Red) vs DMEM negative control (Caco-2/TC7 cells [1]) | negative effect of IFN-γ on Caco-2/TC7 viability under simultaneous plantaricin A treatment (Caco-2/TC7 cells [1]) | percentage of migrated cells in comparison to the positive control ([2]; 1st of six time values (4 h)) | percentage of migrated cells in comparison to the positive control ([2]; 2nd of six time values (8 h)) | percentage of migrated cells in comparison to the positive control ([2]; 3rd of six time values (12 h)) | percentage of migrated cells in comparison to the positive control ([2]; 4th of six time values (24 h)) | percentage of migrated cells in comparison to the positive control ([2]; 5th of six time values (48 h)) | percentage of migrated cells in comparison to the positive control ([2]; 6th of six time values (72 h)) | negative effect of IFN-γ on Caco-2/TC7 TEER with added plantaricin A (Caco-2/TC7 cells [3]) | TEER values for Caco-2/TC7 cells (Caco-2/TC7 cells [3]; 2.5 μg/ml, 24 and 48 hours, vs DMEM) | gap between the wound margins vs control cells [4]
1 | KSSAYSLQMGATAIKQVKKLFKKWGW [chemically synthesized plantaricin A] | Same result | completely eliminated | 158.30% | 115.15% | 124.32% | 141.82% | 141.91% | 128.51% | eliminated also in this case the negative effects | – | –
2 | KSSAYSLQMGATAIKQVKKLFKKWGW [purified plantaricin A] | remarkably increased | completely eliminated | – | – | – | – | – | – | eliminated also in this case the negative effects | remarkable increase | –
3 | hyaluronic acid | – | – | – | – | – | – | – | – | – | – | lesion gap is narrower than for not treated cells

Reference: patent publication US20140348807A1, “PROCESS FOR THE PREPARATION OF A BIOMASS COMPRISING PLANTARICIN AND USES THEREOF IN MEDICAL FIELD” (GIULIANI S.p.A., priority 2010, published 2014)
